Test results reported in patent US12435044B2, “Pyridazinone herbicides and pyridazinone intermediates used to prepare a herbicide” (FMC Corporation, priority 2018, dated 2025).

Assays:
Assay type in all cases: in vivo
[1] = test system: Canada thistle (Cirsium arvense); test: Test D postemergence controlled growth environment test
Description: (§1) Seeds of plant species selected from blackgrass (Alopecurus myosuroides), galium (catchweed bedstraw, Galium aparine), kochia (Kochia scoparia), oilseed rape (Brassica napus), barley, spring (Hordeum vulgare), wheat, spring (Triticum aestivum), oat, wild (Avena fatua), barley, winter (Hordeum vulgare) and wheat, winter (Triticum aestivum) were planted into a silt loam soil and treated preemergence with test chemicals formulated in a non-phytotoxic solvent mixture which included a surfactant.
(§2) At the same time, plants selected from these crop and weed species and also bluegrass (annual bluegrass, Poa annua), canarygrass (littleseed canarygrass, Phalaris minor), chickweed (common chickweed, Stellaria media), bromegrass, downy (downy bromegrass, Bromus tectorum), field poppy (Papaver rhoeas), field violet (Viola arvensis), foxtail, green (Setaria viridis), deadnettle (henbit deadnettle, Lamium amplexicaule), ryegrass, Italian (Lolium multiflorum), lambsquarters (Chenopodium album), pigweed (Amaranthus retroflexus), chamomile (scentless chamomile, Matricaria inodora), Russian thistle (Salsola kali), speedwell (bird's-eye speedwell, Veronica persica), buckwheat, wild (Polygonum convolvulus), mustard, wild (Sinapis arvensis), radish, wild (Raphanus raphanistrum), windgrass (Apera spica-venti), geranium, cutleaf (Geranium dissectum) and Canada thistle (Cirsium arvense) were planted in pots containing Redi-Earth® planting medium (Scotts Company, 14111 Scottslawn Road, Marysville, Ohio 43041) comprising spaghnum peat moss, vermiculite, wetting agent and starter nutrients and treated with postemergence applications of the test chemicals formulated in the same manner. Plants ranged in height from 2 to 18 cm (1- to 4-leaf stage). Treated plants and controls were maintained in a controlled growth environment for 14 to 21 d after which time all species were compared to controls and visually evaluated. Plant response ratings, summarized in Table D, are based on a scale of 0 to 100 where 0 is no effect and 100 is complete control. A dash (-) response means no test result.

[2] = test system: Russian thistle (Salsola kali); test: as above
Description: as §1, §2

[3] = test system: bluegrass (annual bluegrass, Poa annua); test: as above
Description: as §1, §2

[4] = test system: bromegrass, downy (downy bromegrass, Bromus tectorum); test: as above
Description: as §1, §2

[5] = test system: buckwheat, wild (Polygonum convolvulus); test: as above
Description: as §1, §2

[6] = test system: canarygrass (littleseed canarygrass, Phalaris minor); test: as above
Description: as §1, §2

[7] = test system: chickweed (common chickweed, Stellaria media); test: as above
Description: as §1, §2

[8] = test system: deadnettle (henbit deadnettle, Lamium amplexicaule); test: as above
Description: as §1, §2

[9] = test system: field poppy (Papaver rhoeas); test: as above
Description: as §1, §2

[10] = test system: field violet (Viola arvensis); test: as above
Description: as §1, §2

[11] = test system: foxtail, green (Setaria viridis); test: as above
Description: as §1, §2

[12] = test system: geranium, cutleaf (Geranium dissectum); test: as above
Description: as §1, §2

[13] = test system: mustard, wild (Sinapis arvensis); test: as above
Description: as §1, §2

[14] = test system: pigweed (Amaranthus retroflexus); test: as above
Description: as §1, §2

[15] = test system: radish, wild (Raphanus raphanistrum); test: as above
Description: as §1, §2

[16] = test system: ryegrass, Italian (Lolium multiflorum); test: as above
Description: as §1, §2

[17] = test system: speedwell (bird's-eye speedwell, Veronica persica); test: as above
Description: as §1, §2

[18] = test system: windgrass (Apera spica-venti); test: as above
Description: as §1, §2

[19] = test system: Bulrush, Japanese (Scirpus juncoides); test: Test C flooded paddy test; details: Flood, scale 0 to 100

SMILES: Cc1ccc2ccc(C)c(-c3c(O)c(Cl)nn(C)c3=O)c2c1 [Cpd. No. 20, 6-chloro-4-(2,7-dimethyl-1-naphthalenyl)-5-hydroxy-2-methyl-3(2H)-pyridazinone]
- Plant response rating, Canada Thistle ([1]; 16 g ai/ha): 75
- Plant response rating, Canada Thistle ([1]; 31 g ai/ha): 85
- Plant response rating, Canada Thistle ([1]; 62 g ai/ha): 95
- Plant response rating, Canada Thistle ([1]; 125 g ai/ha): 95
- Plant response rating, Russian Thistle ([2]; 16 g ai/ha): 80
- Plant response rating, Russian Thistle ([2]; 31 g ai/ha): 75
- Plant response rating, Russian Thistle ([2]; 62 g ai/ha): 80
- Plant response rating, Russian Thistle ([2]; 125 g ai/ha): 85
- Plant response rating, Bluegrass ([3]; 16 g ai/ha): 0
- Plant response rating, Bluegrass ([3]; 31 g ai/ha): 5
- Plant response rating, Bluegrass ([3]; 62 g ai/ha): 5
- Plant response rating, Bluegrass ([3]; 125 g ai/ha): 10
- Plant response rating, Bromegrass, Downy ([4]; 16 g ai/ha): 0
- Plant response rating, Bromegrass, Downy ([4]; 31 g ai/ha): 5
- Plant response rating, Bromegrass, Downy ([4]; 62 g ai/ha): 10
- Plant response rating, Bromegrass, Downy ([4]; 125 g ai/ha): 25
- Plant response rating, Buckwheat, Wild ([5]; 16 g ai/ha): 100
- Plant response rating, Buckwheat, Wild ([5]; 31 g ai/ha): 98
- Plant response rating, Buckwheat, Wild ([5]; 62 g ai/ha): 99
- Plant response rating, Buckwheat, Wild ([5]; 125 g ai/ha): 100
- Plant response rating, Canarygrass ([6]; 16 g ai/ha): 10
- Plant response rating, Canarygrass ([6]; 31 g ai/ha): 15
- Plant response rating, Canarygrass ([6]; 62 g ai/ha): 20
- Plant response rating, Canarygrass ([6]; 125 g ai/ha): 35
- Plant response rating, Chickweed ([7]; 16 g ai/ha): 99
- Plant response rating, Chickweed ([7]; 31 g ai/ha): 99
- Plant response rating, Chickweed ([7]; 62 g ai/ha): 100
- Plant response rating, Chickweed ([7]; 125 g ai/ha): 100
- Plant response rating, Deadnettle ([8]; 16 g ai/ha): 35
- Plant response rating, Deadnettle ([8]; 31 g ai/ha): 80
- Plant response rating, Deadnettle ([8]; 62 g ai/ha): 85
- Plant response rating, Deadnettle ([8]; 125 g ai/ha): 95
- Plant response rating, Field Poppy ([9]; 16 g ai/ha): 80
- Plant response rating, Field Poppy ([9]; 31 g ai/ha): 85
- Plant response rating, Field Poppy ([9]; 62 g ai/ha): 100
- Plant response rating, Field Poppy ([9]; 125 g ai/ha): 100
- Plant response rating, Field Violet ([10]; 16 g ai/ha): 80
- Plant response rating, Field Violet ([10]; 31 g ai/ha): 80
- Plant response rating, Field Violet ([10]; 62 g ai/ha): 95
- Plant response rating, Field Violet ([10]; 125 g ai/ha): 95
- Plant response rating, Foxtail, Green ([11]; 16 g ai/ha): 85
- Plant response rating, Foxtail, Green ([11]; 31 g ai/ha): 90
- Plant response rating, Foxtail, Green ([11]; 62 g ai/ha): 95
- Plant response rating, Foxtail, Green ([11]; 125 g ai/ha): 98
- Plant response rating, Geranium, Cutleaf ([12]; 16 g ai/ha): 65
- Plant response rating, Geranium, Cutleaf ([12]; 31 g ai/ha): 75
- Plant response rating, Geranium, Cutleaf ([12]; 62 g ai/ha): 80
- Plant response rating, Geranium, Cutleaf ([12]; 125 g ai/ha): 85
- Plant response rating, Mustard, Wild ([13]; 16 g ai/ha): 20
- Plant response rating, Mustard, Wild ([13]; 31 g ai/ha): 25
- Plant response rating, Mustard, Wild ([13]; 62 g ai/ha): 30
- Plant response rating, Mustard, Wild ([13]; 125 g ai/ha): 60
- Plant response rating, Pigweed ([14]; 16 g ai/ha): 98
- Plant response rating, Pigweed ([14]; 31 g ai/ha): 98
- Plant response rating, Pigweed ([14]; 62 g ai/ha): 100
- Plant response rating, Pigweed ([14]; 125 g ai/ha): 100
- Plant response rating, Radish, Wild ([15]; 16 g ai/ha): 0
- Plant response rating, Radish, Wild ([15]; 31 g ai/ha): 0
- Plant response rating, Radish, Wild ([15]; 62 g ai/ha): 15
- Plant response rating, Radish, Wild ([15]; 125 g ai/ha): 25
- Plant response rating, Ryegrass, Italian ([16]; 16 g ai/ha): 65
- Plant response rating, Ryegrass, Italian ([16]; 31 g ai/ha): 75
- Plant response rating, Ryegrass, Italian ([16]; 62 g ai/ha): 80
- Plant response rating, Ryegrass, Italian ([16]; 125 g ai/ha): 90
- Plant response rating, Speedwell ([17]; 16 g ai/ha): 50
- Plant response rating, Speedwell ([17]; 31 g ai/ha): 60
- Plant response rating, Speedwell ([17]; 62 g ai/ha): 80
- Plant response rating, Speedwell ([17]; 125 g ai/ha): 85
- Plant response rating, Windgrass ([18]; 16 g ai/ha): 15
- Plant response rating, Windgrass ([18]; 31 g ai/ha): 25
- Plant response rating, Windgrass ([18]; 62 g ai/ha): 50
- Plant response rating, Windgrass ([18]; 125 g ai/ha): 75

SMILES: Cc1cc(Cl)c2ccccc2c1-c1c(O)c(Cl)nn(C)c1=O [Cpd. No. 65]
- Plant response rating, Bulrush, Japanese ([19]; 62 g ai/ha): 75
- Plant response rating, Bulrush, Japanese ([19]; 125 g ai/ha): 90
